Data on 15 molecules can be found in PubChem BioAssay (NCI).

The term TGI denotes the concentration at which net growth stops. A high value points to less potent growth arrest. Broadly, the GI50 is the concentration at which growth is held to half of that of the control.

What all share (assay): DTP human tumour cell line panel, 48 h
Assay [1] concerns SK-MEL-2 melanoma.
Assay [2] concerns HOP-62 NSCLC.
For assay [3], the system named is SN12C renal.
Assay [4] deals with MALME-3M melanoma.
Assay [5] has as its system NCI-H23 lung.
Assay [6] relates to HT29 colon.
Assay [7] deals with OVCAR-5 ovarian.
In assay [8] the test system is MCF7 breast.
In assay [9] the test system is OVCAR-4 ovarian.

The structures appear in SMILES notation.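 1) Cells in 96-well plates. 2) Compound, 48 h, 5 concentrations. 3) Linear interpolation between surrounding doses. 4) Unreached endpoint = highest concentration. At the GI50, growth is halved. The concentration for full growth arrest is given as TGI.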 Some results are limits rather than exact numbers.

`C=C(C)C1CCC2=CC(CC3(C)OC3C3=CC(C(=O)OC)=C(C1)O3)OC2=O` (centres undefined): the TGI in [1], in assay [2], in assay [3], in assay [4], in assay [5] and in [6] was > 100 µM each time. For the same molecule, the TGI in assay [7] and in assay [8] was > 100 µM in each case.

For the molecule `Nn1c(-c2cccc(Cl)c2)nc2ccccc2c1=O`, the concentration for total growth inhibition (TGI) in assay [1], in [2], in assay [3], in assay [4], in assay [5] and in [6] was > 100 µM in each case. In addition, the TGI in assay [9] and in [7] was > 100 µM each time.

For `CCC[CH2][Sn]([CH2]CCC)([O]C(=O)c1cc(F)ccc1F)[O]C(=O)c1cc(F)ccc1F`, the GI50 in assay [1] is 0.649 µM; in assay [2] it was 2.39 µM; in assay [3] it was 1.16 µM; in [4], 0.703 µM; in [5], 0.731 µM; in assay [6], 1.68 µM. In addition, the GI50 in [9] is 1.58 µM; in [7] it was 1.91 µM. For the same molecule, the TGI in [1] was determined as 1.87 µM; in assay [2], 4.04 µM; in assay [3], 2.39 µM; in assay [4], 2.1 µM; in [5], 2.02 µM; in assay [6], 3.17 µM. Further, the TGI in assay [9] is 2.95 µM; in assay [7], 3.31 µM.

Consider `Cc1ccc(C2[C@H]3C(=O)N(c4ccc(Cc5ccc(N6C(=O)[C@@H]7ON(c8ccccc8)C(c8ccc(C)cc8)[C@@H]7C6=O)cc5)cc4)C(=O)[C@H]3ON2c2ccccc2)cc1` (some centres undefined), for which the TGI in assay [1], in assay [2], in assay [3], in [4], in [5] and in [6] was > 100 µM in each case. Moreover, the TGI in assay [9] and in assay [7] was > 100 µM throughout.

Turning to `C[C@]12Cc3conc3C(O)=C1CC[C@@H]1C2CC[C@@]2(C)C1CC[C@]2(C)O` (some centres undefined), the TGI was 39.3 µM in assay [1]; 64.2 µM in assay [2]; > 100 µM in assay [3]; 59.2 µM in [4]; 49.9 µM in assay [5]; 89.4 µM in assay [6]. Moreover, the TGI amounted to 44.4 µM in [9] and 92.2 µM in assay [7].

Consider `C[C@]12CC(C=O)C(=O)C(O)=C1CC[C@@H]1C2CC[C@@]2(C)C1CC[C@]2(C)O` (some centres undefined), for which the TGI in [1] is 26.6 µM; in assay [2] it was > 100 µM; in [3] it was 42.4 µM; in assay [4] it was 22 µM; in assay [5], 46.4 µM; in assay [6] it was 23.5 µM. The TGI in assay [9] came out at 34.8 µM; in assay [7] it was 32.6 µM.

Regarding `NC(=O)C(=O)C1C(=O)N(c2ccccc2)N=C1N` (centres undefined), the TGI in assay [1], in [2], in [3], in assay [4], in assay [5] and in assay [6] was > 100 µM in each case. Besides, the TGI in assay [9] and in [7] was > 100 µM in each case.

With `Cc1cc(Cl)ccc1N=C1NC(=O)C(CC(=O)Nc2cccc(C)c2C)S1` (centres undefined), the TGI in assay [1] is 46.9 µM; in assay [2], 62.6 µM; in assay [3] it was 82.3 µM; in assay [4] it was 65.1 µM; in assay [5], 52.1 µM; in assay [6], > 100 µM. Moreover, the TGI was 69.2 µM in assay [9] and > 100 µM in [7].

On to `COc1cc([C@@H]2OC(=O)C3C2C(=O)O[C@H]3c2ccc(O)c(OC)c2)ccc1O` (some centres undefined), for which the TGI in assay [2], in assay [3], in assay [4], in assay [5], in [6] and in [9] was > 100 µM throughout. Also, the TGI in assay [7] was > 100 µM.

In the case of `CC(C)N1C(C)[C@@H](c2ccccc2)O[P@@]1(=O)CC1=CCCCC1` (some centres undefined), the TGI in [1], in [2], in assay [3], in assay [4], in assay [5] and in assay [6] was > 100 µM each time. In addition, in assay [7], the TGI is > 100 µM.

In the case of `O=[N+]([O-])c1cccc(S(=O)(=O)N/N=C/c2cc(I)cc([N+](=O)[O-])c2O)c1`, the TGI in assay [1] stood at 39 µM; in assay [2] it was 57.2 µM; in [3], 64.6 µM; in assay [4] it was 64.2 µM; in assay [5], 42.4 µM; in [6] it was 73.6 µM. In addition, the TGI in [9] and in assay [7] was > 100 µM in each case.

As for `CCCCCCCCC(C)CCCCCCCCC(=O)OCC(COP(=O)([O-])OCC[N+](C)(C)C)OC(=O)CCCCCCCCC(C)CCCCCCCC` (centres undefined), the TGI in assay [1], in [2], in [3], in [4], in assay [5] and in assay [6] was > 100 µM throughout. The TGI in assay [9] and in [7] was > 100 µM each time.

Consider `COc1ccc2c(CCCc3ccc(Cl)cc3Cl)c3[n+](cc2c1OC)CCc1cc2c(cc1-3)OCO2`, for which the GI50 in assay [5] was 0.327 µM; in [9], 0.337 µM; in assay [7], 1.13 µM. Besides, the TGI was 1.42 µM in [5], 1.59 µM in assay [9] and 2.62 µM in assay [7].

In the case of `N#CC(C(=N/O)/C(=N\O)C(C#N)c1ccccc1)c1ccccc1` (centres undefined), the TGI in [1], in [2], in assay [3], in assay [4], in assay [5] and in assay [6] was > 100 µM each time. The TGI in [9] and in assay [7] was > 100 µM each time.

Turning to `O=[N+]([O-])c1ccc(C2SCc3nc4ccccc4n32)cc1` (centres undefined), the TGI in assay [1], in assay [2], in assay [3], in assay [4], in assay [5] and in assay [6] was > 100 µM throughout. In addition, the TGI in assay [9] and in assay [7] was > 100 µM each time.
